Reference: the NIST ThermoML archive (doi:10.1016/j.fluid.2008.06.014)
± gives the expanded uncertainty stated by the source.

Conditions: Liquid, vibrating wire

## CCOCC [diethyl ether]
243.15 K, 100 kPa
  mass density: 768.339 ± 3.1 kg/m3
  viscosity: 0.412 ± 0.017 mPa·s
243.15 K, 4360 kPa
  mass density: 771.759 ± 3.1 kg/m3
  viscosity: 0.427 ± 0.017 mPa·s
243.15 K, 9400 kPa
  mass density: 775.801 ± 3.1 kg/m3
  viscosity: 0.445 ± 0.018 mPa·s
243.15 K, 14450 kPa
  mass density: 779.603 ± 3.1 kg/m3
  viscosity: 0.463 ± 0.019 mPa·s
243.15 K, 19460 kPa
  mass density: 783.16 ± 3.1 kg/m3
  viscosity: 0.481 ± 0.019 mPa·s
253.15 K, 100 kPa
  mass density: 758.413 ± 3 kg/m3
  viscosity: 0.363 ± 0.015 mPa·s
253.15 K, 4440 kPa
  mass density: 762.367 ± 3.1 kg/m3
  viscosity: 0.377 ± 0.015 mPa·s
253.15 K, 9400 kPa
  mass density: 766.683 ± 3.1 kg/m3
  viscosity: 0.392 ± 0.016 mPa·s
253.15 K, 14460 kPa
  mass density: 770.762 ± 3.1 kg/m3
  viscosity: 0.408 ± 0.016 mPa·s
253.15 K, 19510 kPa
  mass density: 774.696 ± 3.1 kg/m3
  viscosity: 0.424 ± 0.017 mPa·s
263.15 K, 100 kPa
  mass density: 747.885 ± 3 kg/m3
  viscosity: 0.323 ± 0.013 mPa·s
263.15 K, 4390 kPa
  mass density: 752.036 ± 3 kg/m3
  viscosity: 0.335 ± 0.013 mPa·s
263.15 K, 9440 kPa
  mass density: 756.778 ± 3 kg/m3
  viscosity: 0.35 ± 0.014 mPa·s
263.15 K, 14430 kPa
  mass density: 761.197 ± 3 kg/m3
  viscosity: 0.364 ± 0.015 mPa·s
263.15 K, 19430 kPa
  mass density: 765.357 ± 3.1 kg/m3
  viscosity: 0.378 ± 0.015 mPa·s
273.15 K, 100 kPa
  mass density: 736.593 ± 3 kg/m3
  viscosity: 0.288 ± 0.012 mPa·s
273.15 K, 4380 kPa
  mass density: 741.075 ± 3 kg/m3
  viscosity: 0.3 ± 0.012 mPa·s
273.15 K, 9430 kPa
  mass density: 746.224 ± 3 kg/m3
  viscosity: 0.313 ± 0.013 mPa·s
273.15 K, 14470 kPa
  mass density: 750.968 ± 3 kg/m3
  viscosity: 0.326 ± 0.013 mPa·s
273.15 K, 19480 kPa
  mass density: 755.407 ± 3 kg/m3
  viscosity: 0.339 ± 0.014 mPa·s
283.15 K, 100 kPa
  mass density: 725.632 ± 2.9 kg/m3
  viscosity: 0.26 ± 0.01 mPa·s
283.15 K, 4390 kPa
  mass density: 730.65 ± 2.9 kg/m3
  viscosity: 0.27 ± 0.011 mPa·s
283.15 K, 9420 kPa
  mass density: 735.997 ± 3 kg/m3
  viscosity: 0.283 ± 0.011 mPa·s
283.15 K, 14500 kPa
  mass density: 741.302 ± 3 kg/m3
  viscosity: 0.294 ± 0.012 mPa·s
283.15 K, 19540 kPa
  mass density: 746.114 ± 3 kg/m3
  viscosity: 0.307 ± 0.012 mPa·s
293.15 K, 100 kPa
  mass density: 714.517 ± 2.9 kg/m3
  viscosity: 0.235 ± 0.009 mPa·s
293.15 K, 4380 kPa
  mass density: 719.86 ± 2.9 kg/m3
  viscosity: 0.245 ± 0.01 mPa·s
293.15 K, 9420 kPa
  mass density: 725.825 ± 2.9 kg/m3
  viscosity: 0.256 ± 0.01 mPa·s
293.15 K, 14480 kPa
  mass density: 731.278 ± 2.9 kg/m3
  viscosity: 0.268 ± 0.011 mPa·s
293.15 K, 19490 kPa
  mass density: 736.437 ± 3 kg/m3
  viscosity: 0.28 ± 0.011 mPa·s
303.15 K, 220 kPa
  mass density: 702.89 ± 2.8 kg/m3
  viscosity: 0.214 ± 0.009 mPa·s
303.15 K, 4380 kPa
  mass density: 708.706 ± 2.8 kg/m3
  viscosity: 0.223 ± 0.009 mPa·s
303.15 K, 9420 kPa
  mass density: 715.312 ± 2.9 kg/m3
  viscosity: 0.234 ± 0.009 mPa·s
303.15 K, 14500 kPa
  mass density: 721.122 ± 2.9 kg/m3
  viscosity: 0.245 ± 0.01 mPa·s
303.15 K, 19560 kPa
  mass density: 726.788 ± 2.9 kg/m3
  viscosity: 0.256 ± 0.01 mPa·s
313.15 K, 410 kPa
  mass density: 691.21 ± 2.8 kg/m3
  viscosity: 0.195 ± 0.008 mPa·s
313.15 K, 4360 kPa
  mass density: 697.329 ± 2.8 kg/m3
  viscosity: 0.203 ± 0.008 mPa·s
313.15 K, 9430 kPa
  mass density: 704.446 ± 2.8 kg/m3
  viscosity: 0.214 ± 0.009 mPa·s
313.15 K, 14520 kPa
  mass density: 710.954 ± 2.9 kg/m3
  viscosity: 0.225 ± 0.009 mPa·s
313.15 K, 19610 kPa
  mass density: 717.082 ± 2.9 kg/m3
  viscosity: 0.235 ± 0.009 mPa·s
323.15 K, 350 kPa
  mass density: 678.758 ± 2.7 kg/m3
  viscosity: 0.179 ± 0.007 mPa·s
323.15 K, 4380 kPa
  mass density: 685.74 ± 2.8 kg/m3
  viscosity: 0.187 ± 0.008 mPa·s
323.15 K, 9430 kPa
  mass density: 693.587 ± 2.8 kg/m3
  viscosity: 0.197 ± 0.008 mPa·s
323.15 K, 14490 kPa
  mass density: 700.362 ± 2.8 kg/m3
  viscosity: 0.209 ± 0.008 mPa·s
323.15 K, 19510 kPa
  mass density: 707.014 ± 2.8 kg/m3
  viscosity: 0.217 ± 0.009 mPa·s
333.15 K, 410 kPa
  mass density: 666.408 ± 2.7 kg/m3
  viscosity: 0.163 ± 0.007 mPa·s
333.15 K, 4390 kPa
  mass density: 673.959 ± 2.7 kg/m3
  viscosity: 0.172 ± 0.007 mPa·s
333.15 K, 9430 kPa
  mass density: 682.531 ± 2.7 kg/m3
  viscosity: 0.182 ± 0.007 mPa·s
333.15 K, 14470 kPa
  mass density: 690.138 ± 2.8 kg/m3
  viscosity: 0.192 ± 0.008 mPa·s
333.15 K, 19470 kPa
  mass density: 697.082 ± 2.8 kg/m3
  viscosity: 0.201 ± 0.008 mPa·s
343.15 K, 340 kPa
  mass density: 653.148 ± 2.6 kg/m3
  viscosity: 0.15 ± 0.006 mPa·s
343.15 K, 4390 kPa
  mass density: 661.825 ± 2.7 kg/m3
  viscosity: 0.158 ± 0.006 mPa·s
343.15 K, 9420 kPa
  mass density: 671.37 ± 2.7 kg/m3
  viscosity: 0.167 ± 0.007 mPa·s
343.15 K, 14460 kPa
  mass density: 679.704 ± 2.7 kg/m3
  viscosity: 0.178 ± 0.007 mPa·s
343.15 K, 19470 kPa
  mass density: 687.162 ± 2.8 kg/m3
  viscosity: 0.187 ± 0.008 mPa·s
353.15 K, 410 kPa
  mass density: 639.678 ± 2.6 kg/m3
  viscosity: 0.137 ± 0.006 mPa·s
353.15 K, 4380 kPa
  mass density: 649.165 ± 2.6 kg/m3
  viscosity: 0.146 ± 0.006 mPa·s
353.15 K, 9410 kPa
  mass density: 659.723 ± 2.7 kg/m3
  viscosity: 0.155 ± 0.006 mPa·s
353.15 K, 14440 kPa
  mass density: 668.759 ± 2.7 kg/m3
  viscosity: 0.165 ± 0.007 mPa·s
353.15 K, 19400 kPa
  mass density: 676.864 ± 2.7 kg/m3
  viscosity: 0.174 ± 0.007 mPa·s
363.15 K, 510 kPa
  mass density: 625.615 ± 2.6 kg/m3
  viscosity: 0.126 ± 0.005 mPa·s
363.15 K, 4380 kPa
  mass density: 636.228 ± 2.6 kg/m3
  viscosity: 0.134 ± 0.005 mPa·s
363.15 K, 9390 kPa
  mass density: 647.821 ± 2.6 kg/m3
  viscosity: 0.144 ± 0.006 mPa·s
363.15 K, 14400 kPa
  mass density: 657.773 ± 2.7 kg/m3
  viscosity: 0.153 ± 0.006 mPa·s
363.15 K, 19350 kPa
  mass density: 666.459 ± 2.7 kg/m3
  viscosity: 0.162 ± 0.007 mPa·s
373.15 K, 650 kPa
  mass density: 610.791 ± 2.5 kg/m3
  viscosity: 0.116 ± 0.005 mPa·s
373.15 K, 4380 kPa
  mass density: 622.533 ± 2.6 kg/m3
  viscosity: 0.124 ± 0.005 mPa·s
373.15 K, 9380 kPa
  mass density: 635.564 ± 2.6 kg/m3
  viscosity: 0.134 ± 0.005 mPa·s
373.15 K, 14400 kPa
  mass density: 646.594 ± 2.6 kg/m3
  viscosity: 0.143 ± 0.006 mPa·s
373.15 K, 19460 kPa
  mass density: 656.28 ± 2.7 kg/m3
  viscosity: 0.151 ± 0.006 mPa·s
